According to ChEMBL document CHEMBL5244239, “Penicillin binding protein 2a: An overview and a medicinal chemistry perspective” (Eur J Med Chem, 2020):
In brackets after ≈: the same amount, converted by molar mass.

Legend:
[1] = Binding affinity to methicillin sensitive Staphylococcus aureus PBP2
[2] = test system: Staphylococcus aureus; assay: Antibacterial activity against methicillin resistant Staphylococcus aureus 13101; assay type: functional
[3] = Binding affinity to methicillin sensitive Staphylococcus aureus PBP3
[4] = target: T1, MecA (Staphylococcus aureus, UniProt Q7DHH4); assay: Binding affinity to methicillin resistant Staphylococcus aureus PBP2a
T1 sequence (Q7DHH4 whole entry): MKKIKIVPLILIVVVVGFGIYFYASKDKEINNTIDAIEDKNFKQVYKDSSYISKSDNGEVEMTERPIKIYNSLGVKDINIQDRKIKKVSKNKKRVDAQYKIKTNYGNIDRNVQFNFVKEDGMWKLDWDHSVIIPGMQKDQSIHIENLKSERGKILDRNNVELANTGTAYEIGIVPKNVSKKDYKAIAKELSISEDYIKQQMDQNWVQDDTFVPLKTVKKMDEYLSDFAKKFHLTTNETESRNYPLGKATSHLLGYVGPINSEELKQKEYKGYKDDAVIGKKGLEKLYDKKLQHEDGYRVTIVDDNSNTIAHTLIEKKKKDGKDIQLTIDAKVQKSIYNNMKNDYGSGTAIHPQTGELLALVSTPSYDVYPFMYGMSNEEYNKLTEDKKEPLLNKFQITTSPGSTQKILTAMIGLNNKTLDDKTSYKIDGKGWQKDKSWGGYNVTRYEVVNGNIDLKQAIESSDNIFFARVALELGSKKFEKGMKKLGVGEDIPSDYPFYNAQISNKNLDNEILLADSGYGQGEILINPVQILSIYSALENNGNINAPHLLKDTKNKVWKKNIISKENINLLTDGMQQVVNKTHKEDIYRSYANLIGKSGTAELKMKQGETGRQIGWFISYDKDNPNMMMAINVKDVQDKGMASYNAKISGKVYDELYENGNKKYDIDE

[5] = test system: Staphylococcus aureus; assay: Antibacterial activity against methicillin resistant Staphylococcus aureus TMHS-3125; assay type: functional
[6] = test system: Staphylococcus aureus; assay: Antibacterial activity against methicillin resistant Staphylococcus aureus TMHS-5007; assay type: functional
[7] = Binding affinity to methicillin sensitive Staphylococcus aureus PBP4
[8] = target: T2, Penicillin-binding protein 1 (Staphylococcus aureus, UniProt Q53725); assay: Binding affinity to methicillin sensitive Staphylococcus aureus PBP1
T2 sequence (Q53725 whole entry): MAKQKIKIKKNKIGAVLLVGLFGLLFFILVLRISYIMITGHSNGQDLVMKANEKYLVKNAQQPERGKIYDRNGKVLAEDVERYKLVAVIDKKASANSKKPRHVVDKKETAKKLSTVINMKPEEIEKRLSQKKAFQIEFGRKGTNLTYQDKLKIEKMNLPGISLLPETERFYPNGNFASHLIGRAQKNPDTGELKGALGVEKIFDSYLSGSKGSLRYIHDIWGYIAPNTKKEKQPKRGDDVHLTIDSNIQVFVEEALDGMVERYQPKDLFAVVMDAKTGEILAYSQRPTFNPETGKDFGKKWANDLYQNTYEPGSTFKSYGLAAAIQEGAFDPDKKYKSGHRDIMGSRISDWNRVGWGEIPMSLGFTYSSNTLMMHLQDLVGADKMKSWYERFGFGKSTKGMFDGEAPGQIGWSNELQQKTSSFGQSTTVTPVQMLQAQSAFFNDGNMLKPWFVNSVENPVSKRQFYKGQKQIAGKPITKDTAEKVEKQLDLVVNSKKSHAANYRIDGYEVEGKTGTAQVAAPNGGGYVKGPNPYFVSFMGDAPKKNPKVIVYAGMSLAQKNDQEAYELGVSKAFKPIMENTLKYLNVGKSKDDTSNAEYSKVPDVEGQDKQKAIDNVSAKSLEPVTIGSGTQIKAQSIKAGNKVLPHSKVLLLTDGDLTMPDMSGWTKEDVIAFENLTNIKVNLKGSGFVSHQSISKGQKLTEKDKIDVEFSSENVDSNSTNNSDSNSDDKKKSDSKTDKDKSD

[9] = test system: Staphylococcus aureus; assay: Antibacterial activity against methicillin resistant Staphylococcus aureus 4977; assay type: functional
[10] = test system: Staphylococcus aureus; assay: Antibacterial activity against methicillin resistant Staphylococcus aureus TMHS-5006; assay type: functional
[11] = test system: Staphylococcus aureus; assay: Antibacterial activity against methicillin resistant Staphylococcus aureus ATCC 43300; assay type: functional
[12] = test system: Staphylococcus aureus; assay: Antibacterial activity against methicillin resistant Staphylococcus aureus PL 1; assay type: functional
[13] = test system: Staphylococcus aureus; assay: Antibacterial activity against methicillin resistant Staphylococcus aureus; assay type: functional
[14] = test system: Enterococcus faecium; assay: Antibacterial activity against vancomycin-resistant Enterococcus faecium; assay type: functional
[15] = target: T1, MecA; assay: Displacement of [3H]-penicillin from Staphylococcus aureus PBP2a
[16] = target: T1, MecA; assay: Binding affinity to Staphylococcus aureus ATCC 43300 PBP2a
[17] = test system: Staphylococcus aureus; assay: Antibacterial activity against methicillin resistant Staphylococcus aureus mp 1; assay type: functional
[18] = test system: Staphylococcus aureus; assay: Potentiation of oxacillin against methicillin resistant Staphylococcus aureus assessed as fold increase in oxacillin activity; assay type: functional
[19] = test system: Staphylococcus aureus; assay: Antibacterial activity against methicillin sensitive Staphylococcus aureus ATCC 29213; assay type: functional
[20] = test system: Staphylococcus aureus; assay: Antibacterial activity against methicillin sensitive Staphylococcus aureus NRS119; assay type: functional
[21] = test system: Staphylococcus aureus; assay: Antibacterial activity against methicillin sensitive Staphylococcus aureus NRS100; assay type: functional
[22] = test system: Staphylococcus aureus; assay: Antibacterial activity against methicillin sensitive Staphylococcus aureus NRS70; assay type: functional
[23] = test system: Staphylococcus aureus; assay: Antibacterial activity against methicillin sensitive Staphylococcus aureus NRS123; assay type: functional
[24] = target: T1, MecA; assay: Inhibition of Staphylococcus aureus PBP2a
[25] = test system: Staphylococcus aureus; assay: Antibacterial activity against Vancomycin-resistant Staphylococcus aureus 2; assay type: functional
[26] = test system: Staphylococcus aureus; assay: Antibacterial activity against methicillin sensitive Staphylococcus aureus NRS120; assay type: functional
[27] = test system: Staphylococcus aureus; assay: Antibacterial activity against Vancomycin-resistant Staphylococcus aureus 1; assay type: functional
[28] = target: T2, Penicillin-binding protein 1; assay: Inhibition of Staphylococcus aureus PBP1
[29] = test system: Staphylococcus aureus; assay: Antibacterial activity against methicillin sensitive Staphylococcus aureus NRS128; assay type: functional

For `CCO/N=C(\C(=O)N[C@@H]1C(=O)N2C(C(=O)[O-])=C(Sc3nc(-c4cc[n+](C)cc4)cs3)CS[C@H]12)c1nsc(N)n1` [CEFTAROLINE], the IC50 [1] was 0.1 µg/mL (≈ 0.165 µM), the MIC [2] was 2 µg/mL (≈ 3.31 µM) and the IC50 [3] was 0.1 µg/mL (≈ 0.165 µM). The IC50 [4] was 0.265 µM, the MIC [5] was > 32 µg/mL and the MIC [6] was > 32 µg/mL. For the same compound, the IC50 [7] was > 1 µg/mL, the IC50 [8] was 0.165 µM and the MIC [9] was 2 µg/mL (≈ 3.31 µM). The MIC [10] was > 32 µg/mL.
`C[C@@H](NC(=O)c1c(F)cccc1-c1ccccc1)B(O)O` showed an MIC [11] of 32 µg/mL (≈ 111 µM) and an MIC [12] of 32 µg/mL (≈ 111 µM).
For `C#Cc1ccc(/C=C/c2nc3ccccc3c(=O)n2-c2cccc(C(=O)O)c2)cc1`, the MIC [13] was 0.03 µg/mL (≈ 0.0764 µM).
Work on `Oc1ccc(-c2nc(-c3ccc(Oc4ccc(C(F)(F)F)cc4)cc3)no2)cc1` yielded an MIC [13] of 1 µg/mL (≈ 2.51 µM) and an MIC [14] of 1 µg/mL (≈ 2.51 µM).
Work on `C[C@@H](O)[C@H]1C(=O)N2C(C(=O)[O-])=C(c3ccc4c(c3)-c3ccc(C[n+]5ccn(C)c5)cc3C4=O)[C@H](C)[C@H]12` yielded an IC50 [15] of 2.48 µM and an MIC [13] of 16 µg/mL (≈ 33.1 µM).
In the case of `CCCOc1cccc(C(=O)Nc2ccc(Br)cc2C(=O)O)c1`, the IC50 [16] is reported as 230 µM, the MIC [11] is reported as 32 µg/mL (≈ 84.6 µM) and the MIC [17] is reported as 32 µg/mL (≈ 84.6 µM).
With `C=C1CCC[C@@H]2Nc3ccc(Br)cc3[C@]12CCNS(=O)(=O)c1ccc(Cl)cc1` the “fold change (FC)” value [18] was 128.
Work on `O=c1c2ccccc2nc(/C=C/c2ccc([N+](=O)[O-])cc2)n1-c1cccc(O)c1` yielded an MIC [19] of 2 µg/mL (≈ 5.19 µM).
`N#Cc1ccc(/C=C/c2nc3ccccc3c(=O)n2-c2cccc(C(=O)O)c2)cc1` showed an MIC [20] of 2 µg/mL (≈ 5.08 µM), an MIC [21] of 2 µg/mL (≈ 5.08 µM) and an MIC [22] of 2 µg/mL (≈ 5.08 µM). For the same compound, the MIC [23] was 2 µg/mL (≈ 5.08 µM), the MIC [19] was 2 µg/mL (≈ 5.08 µM) and the IC50 [24] was 356 µM. It also gave an MIC [25] of 2 µg/mL (≈ 5.08 µM), an MIC [26] of 2 µg/mL (≈ 5.08 µM) and an MIC [27] of 2 µg/mL (≈ 5.08 µM). It also gave an IC50 [28] of 78 µg/mL (≈ 198 µM) and an MIC [29] of 2 µg/mL (≈ 5.08 µM).
For `CCCOc1ccc2cc(C(=O)Nc3ccc(Br)cc3C(=O)O)ccc2c1`, the IC50 [16] was 210 µM, the MIC [11] was 128 µg/mL (≈ 299 µM) and the MIC [17] was 128 µg/mL (≈ 299 µM).
In the case of `CCCOc1cccc(C(=O)Nc2ccccc2C(=O)O)c1`, the IC50 [16] is reported as 910 µM, the MIC [11] is reported as 512 µg/mL (≈ 1710 µM) and the MIC [17] is reported as 512 µg/mL (≈ 1710 µM).
